Test results reported in ChEMBL document CHEMBL3885881, “DrugMatrix”.

Organism: Rattus norvegicus
Test: DrugMatrix - Regimen: Daily Repeat
Type: toxicity, organism-based, Sprague-Dawley
Set-up: regimen Daily Repeat, gender Male, age 6-8 weeks
Details: in vivo, po, route oral GAVAGE; for ABSOLUTE MONOCYTE / ABSOLUTE SEGMENTED NEUTROPHIL / BASOPHIL / EOSINOPHIL / ERYTHROCYTE COUNT / HEMATOCRIT / HEMOGLOBIN / LEUKOCYTE COUNT / LYMPHOCYTE / MEAN CORPUSCULAR HEMOGLOBIN / MEAN CORPUSCULAR HEMOGLOBIN CONCENTRATION / MEAN CORPUSCULAR VOLUME / MONOCYTE / NEUTROPHIL / NUCLEATED RED BLOOD CELLS / PLATELET COUNT / ABSOLUTE BASOPHIL / ABSOLUTE EOSINOPHIL / ABSOLUTE LYMPHOCYTE: tissue Blood; for ALANINE AMINOTRANSFERASE / ALBUMIN / ALKALINE PHOSPHATASE / ASPARTATE AMINOTRANSFERASE / BLOOD UREA NITROGEN / CARBON DIOXIDE / CHLORIDE / CHOLESTEROL / CREATINE PHOSPHOKINASE / CREATININE / GLUCOSE / LACTATE DEHYDROGENASE / LIPASE / PHOSPHORUS / POTASSIUM / SODIUM / TOTAL BILIRUBIN / TOTAL PROTEIN / URIC ACID: tissue Plasma
[1] = 20 mg/kg, 120 h, dose level Low, time 5 day, […]
[2] = 54 mg/kg, 72 h, dose level M1, time 3 day, vehicle 100 % WATER
[3] = 54 mg/kg, 120 h, dose level M1, time 5 day, vehicle 100 % WATER

With Cn1cnc([N+](=O)[O-])c1Sc1ncnc2nc[nH]c12 [AZATHIOPRINE] the “ABSOLUTE MONOCYTE” value [1] was 73.67 CELLS/uL, the “ABSOLUTE SEGMENTED NEUTROPHIL” value [1] was 134 CELLS/uL and the BASOPHIL [1] was 0%. For the same compound, the EOSINOPHIL [1] was 0%, the “ERYTHROCYTE COUNT” value [1] was 5 x10E6/uL and the HEMATOCRIT [1] was 31.27%. For the same compound, the HEMOGLOBIN [1] was 12.3 G/DL, the “LEUKOCYTE COUNT” value [1] was 5.33 x10E3/uL and the LYMPHOCYTE [1] was 96%. For the same compound, the “MEAN CORPUSCULAR HEMOGLOBIN” value [1] was 24.53 pg, the “MEAN CORPUSCULAR HEMOGLOBIN CONCENTRATION” value [1] was 39.33 G/DL and the “MEAN CORPUSCULAR VOLUME” value [1] was 62.43 fL. The MONOCYTE [1] was 1.33%, the NEUTROPHIL [1] was 2.67% and the “NUCLEATED RED BLOOD CELLS” value [1] was 0 /100WBC. The “PLATELET COUNT” value [1] was 1346.67 x10E3/uL, the “ALANINE AMINOTRANSFERASE” value [1] was 45.33 u/L and the ALBUMIN [1] was 4.33 G/DL. For the same compound, the “ALKALINE PHOSPHATASE” value [1] was 305 u/L, the “ASPARTATE AMINOTRANSFERASE” value [1] was 83 u/L and the “BLOOD UREA NITROGEN” value [1] was 14 mg/dL. For the same compound, the “CARBON DIOXIDE” value [1] was 29.33 mmol/L, the CHLORIDE [1] was 104.33 MEQ/L and the CHOLESTEROL [1] was 75 mg/dL. The “CREATINE PHOSPHOKINASE” value [1] was 212.33 u/L, the CREATININE [1] was 0.4 mg/dL and the GLUCOSE [1] was 152.67 mg/dL. The “LACTATE DEHYDROGENASE” value [1] was 68 u/L, the LIPASE [1] was 13 u/L and the PHOSPHORUS [1] was 10.93 mg/dL. For the same compound, the POTASSIUM [1] was 5.68 MEQ/L, the SODIUM [1] was 146.9 MEQ/L and the “TOTAL BILIRUBIN” value [1] was 0.1 mg/dL. The “TOTAL PROTEIN” value [1] was 6.67 G/DL, the “URIC ACID” value [1] was 0.33 mg/dL and the “ABSOLUTE BASOPHIL” value [2] was 0 CELLS/uL. The “ABSOLUTE EOSINOPHIL” value [2] was 0 CELLS/uL, the “ABSOLUTE LYMPHOCYTE” value [2] was 10600.67 CELLS/uL and the “ABSOLUTE MONOCYTE” value [2] was 39.33 CELLS/uL. The “ABSOLUTE SEGMENTED NEUTROPHIL” value [2] was 326.67 CELLS/uL, the BASOPHIL [2] was 0% and the EOSINOPHIL [2] was 0%. The “ERYTHROCYTE COUNT” value [2] was 5.04 x10E6/uL, the HEMATOCRIT [2] was 31.57% and the HEMOGLOBIN [2] was 12.03 G/DL. The “LEUKOCYTE COUNT” value [2] was 10.97 x10E3/uL, the LYMPHOCYTE [2] was 96.67% and the “MEAN CORPUSCULAR HEMOGLOBIN” value [2] was 23.9 pg. For the same compound, the “MEAN CORPUSCULAR HEMOGLOBIN CONCENTRATION” value [2] was 38.13 G/DL, the “MEAN CORPUSCULAR VOLUME” value [2] was 62.73 fL and the MONOCYTE [2] was 0.33%. For the same compound, the NEUTROPHIL [2] was 3%, the “NUCLEATED RED BLOOD CELLS” value [2] was 0 /100WBC and the “PLATELET COUNT” value [2] was 1322.33 x10E3/uL. The “ALANINE AMINOTRANSFERASE” value [2] was 39.67 u/L, the ALBUMIN [2] was 4.23 G/DL and the “ALKALINE PHOSPHATASE” value [2] was 313.33 u/L. For the same compound, the “ASPARTATE AMINOTRANSFERASE” value [2] was 66 u/L, the “BLOOD UREA NITROGEN” value [2] was 10.67 mg/dL and the “CARBON DIOXIDE” value [2] was 28.67 mmol/L. For the same compound, the CHLORIDE [2] was 100 MEQ/L, the CHOLESTEROL [2] was 81.67 mg/dL and the “CREATINE PHOSPHOKINASE” value [2] was 160.33 u/L. For the same compound, the CREATININE [2] was 0.25 mg/dL, the GLUCOSE [2] was 157.33 mg/dL and the “LACTATE DEHYDROGENASE” value [2] was 114.33 u/L. For the same compound, the LIPASE [2] was 13 u/L, the PHOSPHORUS [2] was 10.63 mg/dL and the POTASSIUM [2] was 6.03 MEQ/L. The SODIUM [2] was 141.9 MEQ/L, the “TOTAL BILIRUBIN” value [2] was 0.13 mg/dL and the “TOTAL PROTEIN” value [2] was 5.97 G/DL. For the same compound, the “URIC ACID” value [2] was 1.17 mg/dL, the “ABSOLUTE BASOPHIL” value [3] was 0 CELLS/uL and the “ABSOLUTE EOSINOPHIL” value [3] was 0 CELLS/uL. For the same compound, the “ABSOLUTE LYMPHOCYTE” value [3] was 4380.67 CELLS/uL, the “ABSOLUTE MONOCYTE” value [3] was 0 CELLS/uL and the “ABSOLUTE SEGMENTED NEUTROPHIL” value [3] was 119.33 CELLS/uL. For the same compound, the BASOPHIL [3] was 0%, the EOSINOPHIL [3] was 0% and the “ERYTHROCYTE COUNT” value [3] was 4.85 x10E6/uL. The HEMATOCRIT [3] was 31.6%, the HEMOGLOBIN [3] was 12.13 G/DL and the “LEUKOCYTE COUNT” value [3] was 4.5 x10E3/uL. For the same compound, the LYMPHOCYTE [3] was 97.33%, the “MEAN CORPUSCULAR HEMOGLOBIN” value [3] was 25 pg and the “MEAN CORPUSCULAR HEMOGLOBIN CONCENTRATION” value [3] was 38.37 G/DL. For the same compound, the “MEAN CORPUSCULAR VOLUME” value [3] was 65.07 fL, the MONOCYTE [3] was 0% and the NEUTROPHIL [3] was 2.67%. The “NUCLEATED RED BLOOD CELLS” value [3] was 0 /100WBC, the “PLATELET COUNT” value [3] was 1116.33 x10E3/uL and the “ALANINE AMINOTRANSFERASE” value [3] was 29.67 u/L.
